Counter-ions that a name gives are not always drawn.
These molecules were tested against T1, p110α Type Ia human PI3K (Homo sapiens, UniProt P42336) (assay: Test (a) In Vitro PI3K Enzyme Assay (AlphaScreen)). Settings: read-out: IC50 versus p110α PI3K.
T1 construct: full length DNA of each of the p110α, p110β and p110δ Type Ia human PI3K p110 isoforms; 6-His; made in house; host or cells: baculovirus expression system (Sf9 is named only for PI3Kγ)
Type: biochemical
Excerpt: The assay used AlphaScreen technology (Gray et al., Analytical Biochemistry, 2003, 313: 234-245) to determine the ability of test compounds to inhibit phosphorylation by recombinant Type I PI3K enzymes of the lipid PI(4,5)P2.
DNA fragments encoding human PI3K catalytic and regulatory subunits were isolated from cDNA libraries using standard molecular biology and PCR cloning techniques. The selected DNA fragments were used to generate baculovirus expression vectors. In particular, full length DNA of each of the p110α, p110β and p110δ Type Ia human PI3K p110 isoforms (EMBL Accession Nos. HSU79143, S67334, Y10055 for p110α, p110β and p110δ respectively) were sub-cloned into a pDEST10 vector (Invitrogen Limited, Fountain Drive, Paisley, UK). The vector is a Gateway-adapted version of Fastbac1 containing a 6-His epitope tag. A truncated form of Type Ib human PI3K p110γ isoform corresponding to amino acid residues 144-1102 (EMBL Accession No. X8336A) and the full length human p85α regulatory subunit (EMBL Accession No. HSP13KIN) were also sub-cloned into pFastBac1 vector containing a 6-His epitope tag. The Type Ia p110 constructs were co-expressed with the p85α regulatory subunit. Following expression in the baculovirus system using standard baculovirus expression techniques, expressed proteins were purified using the His epitope tag using standard purification techniques.
DNA corresponding to amino acids 263 to 380 of human general receptor for phosphoinositides (Grp1) PH domain was isolated from a cDNA library using standard molecular biology and PCR cloning techniques. The resultant DNA fragment was sub-cloned into a pGEX 4T1 E. coli expression vector containing a GST epitope tag (Amersham Pharmacia Biotech, Rainham, Essex, UK) as described by Gray et al., Analytical Biochemistry, 2003, 313: 234-245). The GST-tagged Grp1 PH domain was expressed and purified using standard techniques.
Test compounds were prepared as […] stock solutions in DMSO and diluted into water as required to give a range of final assay concentrations. Aliquots (2 μl) of each compound dilution were placed into a well of a Greiner 384-well low volume (LV) white polystyrene plate (Greiner Bio-one, Brunel Way, Stonehouse, Gloucestershire, UK Catalogue No. 784075). […]
Biotinylated-DiC8-PI(3,4,5)P3 (50 nM; Cell Signals Inc., Catalogue No. 107), recombinant purified GST-Grp1 PH protein (2.5 nM) and AlphaScreen Anti-GST donor and acceptor beads (100 ng; Packard Bioscience Limited, Station Road, Pangbourne, Berkshire, UK, Catalogue No. 6760603M) were added and the assay plates were left for about 5 to 20 hours at room temperature in the dark. The resultant signals arising from laser light excitation at 680 nm were read using a Packard AlphaQuest instrument. […]

T1 sequence (P42336 whole entry, canonical isoform): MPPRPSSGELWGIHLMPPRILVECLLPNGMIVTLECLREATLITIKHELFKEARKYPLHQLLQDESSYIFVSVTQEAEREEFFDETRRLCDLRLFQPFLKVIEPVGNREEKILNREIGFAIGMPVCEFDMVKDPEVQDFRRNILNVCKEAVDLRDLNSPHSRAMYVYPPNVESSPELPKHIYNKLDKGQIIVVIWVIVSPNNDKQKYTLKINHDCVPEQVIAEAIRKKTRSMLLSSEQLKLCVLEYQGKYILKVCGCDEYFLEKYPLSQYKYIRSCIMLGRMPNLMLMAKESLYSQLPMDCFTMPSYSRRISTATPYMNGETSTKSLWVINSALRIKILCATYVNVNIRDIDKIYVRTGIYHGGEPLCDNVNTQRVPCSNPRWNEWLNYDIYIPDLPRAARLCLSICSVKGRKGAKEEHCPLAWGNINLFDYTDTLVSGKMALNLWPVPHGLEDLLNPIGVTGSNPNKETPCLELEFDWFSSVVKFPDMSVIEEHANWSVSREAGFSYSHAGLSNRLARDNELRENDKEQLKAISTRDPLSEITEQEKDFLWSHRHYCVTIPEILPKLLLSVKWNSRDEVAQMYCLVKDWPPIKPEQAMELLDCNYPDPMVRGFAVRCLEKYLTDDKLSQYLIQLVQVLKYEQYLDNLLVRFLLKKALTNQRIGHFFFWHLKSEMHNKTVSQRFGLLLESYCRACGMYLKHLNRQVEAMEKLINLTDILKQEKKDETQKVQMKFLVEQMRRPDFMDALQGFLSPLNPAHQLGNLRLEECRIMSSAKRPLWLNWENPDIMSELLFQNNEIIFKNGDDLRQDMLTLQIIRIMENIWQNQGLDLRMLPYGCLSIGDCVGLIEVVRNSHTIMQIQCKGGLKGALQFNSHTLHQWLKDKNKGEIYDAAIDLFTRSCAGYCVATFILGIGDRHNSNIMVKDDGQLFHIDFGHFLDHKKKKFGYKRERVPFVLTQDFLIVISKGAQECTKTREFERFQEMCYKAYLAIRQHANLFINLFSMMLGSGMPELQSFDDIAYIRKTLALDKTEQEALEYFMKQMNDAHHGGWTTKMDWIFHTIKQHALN
T1 sequence (P27986 whole entry partner, canonical isoform): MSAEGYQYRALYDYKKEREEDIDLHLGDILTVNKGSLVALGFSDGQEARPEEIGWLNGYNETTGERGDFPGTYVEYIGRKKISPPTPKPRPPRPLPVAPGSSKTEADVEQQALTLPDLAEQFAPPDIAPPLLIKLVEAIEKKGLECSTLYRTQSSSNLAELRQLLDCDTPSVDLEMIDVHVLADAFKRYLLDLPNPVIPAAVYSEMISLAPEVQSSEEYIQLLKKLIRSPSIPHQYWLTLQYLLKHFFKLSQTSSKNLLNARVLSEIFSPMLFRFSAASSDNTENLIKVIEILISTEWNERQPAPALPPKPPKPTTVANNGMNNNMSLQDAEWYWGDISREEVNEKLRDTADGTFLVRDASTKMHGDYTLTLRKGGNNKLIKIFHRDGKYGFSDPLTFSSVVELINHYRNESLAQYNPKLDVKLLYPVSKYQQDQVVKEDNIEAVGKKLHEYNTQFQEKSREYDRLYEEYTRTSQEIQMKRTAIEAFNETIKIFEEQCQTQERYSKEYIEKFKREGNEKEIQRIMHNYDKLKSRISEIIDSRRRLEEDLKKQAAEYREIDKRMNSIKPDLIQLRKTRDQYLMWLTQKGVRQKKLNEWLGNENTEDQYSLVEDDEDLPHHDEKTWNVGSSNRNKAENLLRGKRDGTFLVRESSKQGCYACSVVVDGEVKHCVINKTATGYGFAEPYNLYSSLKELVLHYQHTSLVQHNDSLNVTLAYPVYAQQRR

In order of falling IC50:
1. CC(=O)Nc1nc(C)c(-c2cnc(Cl)c(NCc3ccc(F)cc3)c2)s1 [Compound No. 3 within Example 79, N-{5-[6-Chloro-5-(4-fluorobenzylamino)pyridin-3-yl]-4-methyl-1,3-thiazol-2-yl}acetamide]  ~200 nM
2. CC(=O)Nc1nc(C)c(-c2cnc(Cl)c(S(=O)(=O)Nc3ccccc3)c2)s1 [Compound No. 4 within Example 73, N-{5-[6-Chloro-5-(N-phenylsulfamoyl)pyridin-3-yl]-4-methyl-1,3-thiazol-2-yl]acetamide]  ~30 nM
3. CC(=O)Nc1nc(C)c(-c2cnc(Cl)c(NS(C)(=O)=O)c2)s1 [Example 28, N-[5-(6-Chloro-5-methylsulfonylaminopyridin-3-yl)-4-methyl-1,3-thiazol-2-yl]acetamide trifluoroacetate]  ~10 nM
